Measured values: patent US11976061B2, “Preparation of benzimidazolone derivatives as novel diacylglyceride O-acyltransferase 2 inhibitors” (Merck Sharp & Dohme LLC, priority 2020, dated 2024)
Read-outs that look alike come from different tables or passages of the source.

Target: T1, human DGAT2 (hDGAT2) (Homo sapiens, UniProt Q96PD7)
T1 construct: made in house; host or cells: Sf-9 insect cells (baculovirus), membrane fraction
T1 sequence (Q96PD7 1-388): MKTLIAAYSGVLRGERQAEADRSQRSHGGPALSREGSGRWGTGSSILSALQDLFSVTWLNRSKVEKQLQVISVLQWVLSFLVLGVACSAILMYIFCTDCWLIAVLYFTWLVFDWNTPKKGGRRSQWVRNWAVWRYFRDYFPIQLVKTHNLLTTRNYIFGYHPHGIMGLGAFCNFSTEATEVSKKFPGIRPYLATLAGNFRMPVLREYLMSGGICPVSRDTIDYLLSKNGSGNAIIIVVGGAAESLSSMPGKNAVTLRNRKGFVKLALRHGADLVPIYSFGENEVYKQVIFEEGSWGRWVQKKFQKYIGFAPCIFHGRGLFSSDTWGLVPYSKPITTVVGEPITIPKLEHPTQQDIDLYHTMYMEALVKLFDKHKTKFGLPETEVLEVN
Assay: DGAT2 Enzymatic Activity Assay
Assay type: biochemical
Conditions: membrane prep of Sf-9 cells expressing hDGAT2, 25 μM diolein, 5 μM 13C oleoyl-CoA, 13C18-triolein by LC/MS/MS
Summary of the method: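 Membranes from Sf-9 cells expressing untagged human DGAT2 (8 ng/μL) incubated at rt in 100 mM Tris·Cl pH 7.0, 20 mM MgCl2, 5% ethanol with 25 μM diolein and 5 μM 13C oleoyl-CoA. 13C18-triolein product quantified by LC/MS/MS against 13C21-triolein internal standard; IC50 by 4-parameter fit.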

Compound | IC50 (read-out: Human DGAT2 IC50) | IC50 (read-out: DGAT2 IC50)
CC(C)n1c(=O)n(-c2cccc(OC(F)(F)F)c2)c2ccc(C(=O)NC3(C)CCS(=O)(=O)CC3)cc21 [Example 10, 3-isopropyl-N-(4-methyl-1,1-dioxo-thian-4-yl)-2-oxo-1-[3-(trifluoromethoxy)phenyl]benz-imidazole-5-carboxamide] | 0.153 µM | 
CC(C)n1c(=O)n(-c2cccc(OCC(F)F)c2)c2ccc(C(=O)NC3(C)CCS(=O)(=O)CC3)cc21 [Example 11, 1-[3-(2,2-difluoroethoxy)phenyl]-3-isopropyl-N-(4-methyl-1,1-dioxo-thian-4-yl)-2-oxo-benzimidazole-5-carboxamide] | 0.015 µM | 
CC(C)n1c(=O)n(-c2cc(OC(F)F)ccn2)c2ccc(C(=O)NC3(C)CS(=O)(=O)C3)cc21 [Example 12, 1-[4-(difluoromethoxy)-2-pyridyl]-3-isopropyl-N-(3-methyl-1,1-dioxo-thietan-3-yl)-2-oxo-benzimidazole-5-carboxamide] | 0.122 µM | 
CC(C)n1c(=O)n(-c2cccc(C3CC3)c2)c2ccc(C(=O)NC3(C)CS(=O)(=O)C3)cc21 [Example 13, 1-(3-cyclopropylphenyl)-3-isopropyl-N-(3-methyl-1,1-dioxo-thietan-3-yl)-2-oxo-benzimidazole-5-carboxamide] | 0.017 µM | 
CC(C)n1c(=O)n(-c2cccc(OC3CC3)c2)c2ccc(C(=O)NC3(C)CS(=O)(=O)C3)cc21 [Example 14, 1-[3-(cyclopropoxy)phenyl]-3-isopropyl-N-(3-methyl-1,1-dioxo-thietan-3-yl)-2-oxo-benzimidazole-5-carboxamide] | 0.015 µM | 
CCOc1cc(-n2c(=O)n(C(C)C)c3cc(C(=O)NC4(C)CCS(=O)(=O)CC4)ccc32)c(F)cn1 [Example 15, 1-(2-Ethoxy-5-fluoropyridin-4-yl)-3-isopropyl-N-(4-methyl-1,1-dioxidotetrahydro-2H-thiopyran-4-yl)-2-oxo-2,3-dihydro-1H-benzo[d]imidazole-5-carboxamide] | 0.0067 µM | 
CCOc1cc(-n2c(=O)n(C(C)C)c3cc(C(=O)NC4(C)CS(=O)(=O)C4)ccc32)c(F)cn1 [Example 16, 1-(2-ethoxy-5-fluoropyridin-4-yl)-3-isopropyl-N-(3-methyl-1,1-dioxidothietan-3-yl)-2-oxo-2,3-dihydro-1H-benzo[d]imidazole-5-carboxamide] | 0.032 µM | 
CCOc1cc(-n2c(=O)n(C(C)C)c3cc(C(=O)N[C@@]4(C)CCS(=O)(=O)C4)ccc32)c(F)cn1 [Example 17, (S)-1-(2-Ethoxy-5-fluoropyridin-4-yl)-3-isopropyl-N-(3-methyl-1,1-dioxidotetrahydrothiophen-3-yl)-2-oxo-2,3-dihydro-1H-benzo[d]imidazole-5-carboxamide] | 0.122 µM | 
CCOc1cc(-n2c(=O)n(C(C)C)c3cc(C(=O)N[C@]4(C)CCS(=O)(=O)C4)ccc32)c(F)cn1 [Example 18, (R)-1-(2-Ethoxy-5-fluoropyridin-4-yl)-3-isopropyl-N-(3-methyl-1,1-dioxidotetrahydrothiophen-3-yl)-2-oxo-2,3-dihydro-1H-benzo[d]imidazole-5-carboxamide] | 0.028 µM | 
CC(C)n1c(=O)n(-c2cccc(OC(F)(F)F)c2)c2ccc(C(=O)NC3(C)CS(=O)(=O)C3)cc21 [Example 19, 3-isopropyl-N-(3-methyl-1,1-dioxo-thietan-3-yl)-2-oxo-1-[3-(trifluoromethoxy)phenyl]benz-imidazole-5-carboxamide] | 0.1 µM | 
CC(C)n1c(=O)n(-c2cc(OC(F)F)ncc2F)c2ccc(C(=O)NC3(C)CS(=O)(=O)C3)cc21 [Example 20, 1-(2-(difluoromethoxy)-5-fluoropyridin-4-yl)-3-isopropyl-N-(3-methyl-1,1-dioxidothietan-3-yl)-2-oxo-2,3-dihydro-1H-benzo[d]imidazole-5-carboxamide] | 0.076 µM | 
CCOc1cc(-n2c(=O)n(C(C)C)c3cc(C(=O)NC4(C)CS(=O)(=O)C4)c(F)cc32)c(F)cn1 [Example 21, 1-(2-Ethoxy-5-fluoropyridin-4-yl)-6-fluoro-3-isopropyl-N-(3-methyl-1,1-dioxidothietan-3-yl)-2-oxo-2,3-dihydro-1H-benzo[d]imidazole-5-carboxamide] | 0.031 µM | 
CC(C)n1c(=O)n(-c2cccc(C3CC3(F)F)c2)c2ccc(C(=O)NC3(C)CS(=O)(=O)C3)cc21 (stereo not drawn) [Example 22, 1-(3-(2,2-Difluorocyclopropyl)phenyl)-3-isopropyl-N-(3-methyl-1,1-dioxidothietan-3-yl)-2-oxo-2,3-dihydro-1H-benzo[d]imidazole-5-carboxamide] | 0.066 µM | 
CC(C)n1c(=O)n(-c2cccc(OC(F)F)c2)c2ccc(C(=O)N[C@]3(C)CCS(=O)(=O)C3)cc21 [Example 23, (R)-1-(3-(Difluoromethoxy)phenyl)-3-isopropyl-N-(3-methyl-1,1-dioxidotetrahydrothiophen-3-yl)-2-oxo-2,3-dihydro-1H-benzo[d]imidazole-5-carboxamide] | 0.063 µM | 
CC(C)n1c(=O)n(-c2cc(OC(F)F)ncc2F)c2cc(F)c(C(=O)NC3(C)CS(=O)(=O)C3)cc21 [Example 24, 1-(2-(Difluoromethoxy)-5-fluoropyridin-4-yl)-6-fluoro-3-isopropyl-N-(3-methyl-1,1-dioxidothietan-3-yl)-2-oxo-2,3-dihydro-1H-benzo[d]imidazole-5-carboxamide] | 0.066 µM | 

Second part, the compound after the results:

IC50 (read-out: Human DGAT2 IC50) | IC50 (read-out: DGAT2 IC50) | Compound
0.023 µM |  | CC(C)n1c(=O)n(-c2cccc(OC(F)F)c2)c2ccc(C(=O)NC3(C)CCS(=O)(=O)CC3)cc21 [Example 25, 1-(3-(difluoromethoxy)phenyl)-3-isopropyl-N-(4-methyl-1,1-dioxidotetrahydro-2H-thiopyran-4-yl)-2-oxo-2,3-dihydro-1H-benzo[d]imidazole-5-carboxamide]
 | 0.054 µM | CC(C)n1c(=O)n(-c2cccc(OC(F)F)c2)c2ccc(C(=O)NC3(C)CS(=O)(=O)C3)cc21 [Example 26, 1-[3-(difluoromethoxy)phenyl]-3-isopropyl-N-(3-methyl-1,1-dioxo-thietan-3-yl)-2-oxo-benzimidazole-5-carboxamide]
 | > 10 µM | CC(C)n1c(=O)n(-c2cccc(OC(F)F)c2)c2ccc(C(=O)NC(C)C(C)(C)O)cc21 (stereo not drawn) [Example 27, 1-[3-(difluoromethoxy)phenyl]-N-(2-hydroxy-1,2-dimethyl-propyl)-3-isopropyl-2-oxo-benzimidazole-5-carboxamide]
 | 0.779 µM | CC(C)n1c(=O)n(-c2cccc(OC(F)F)c2)c2ccc(C(=O)N[C@H]3CCC[C@@H]3O)cc21 [Example 28, 1-[3-(difluoromethoxy)phenyl]-N-[(1S,2S)-2-hydroxycyclopentyl]-3-isopropyl-2-oxo-benzimidazole-5-carboxamide]
 | 1.26 µM | CC(C)n1c(=O)n(-c2cccc(OC(F)F)c2)c2ccc(C(=O)N[C@H]3CCOC[C@@H]3O)cc21 [Example 29, 1-[3-(difluoromethoxy)phenyl]-N-[(3R,4S)-3-hydroxytetrahydropyran-4-yl]-3-isopropyl-2-oxo-benzimidazole-5-carboxamide]
 | 0.031 µM | CC(C)n1c(=O)n(-c2cccc(OC(F)F)c2)c2ccc(C(=O)N[C@H]3CCCC(F)(F)[C@@H]3O)cc21 [Example 30, N-[(1S,2R)-3,3-difluoro-2-hydroxy-cyclohexyl]-1-[3-(difluoromethoxy)phenyl]-3-isopropyl-2-oxo-benzimidazole-5-carboxamide]
 | 0.106 µM | CC(C)n1c(=O)n(-c2cccc(OC(F)F)c2)c2ccc(C(=O)N[C@@H]3CCCC[C@H]3O)cc21 [Example 31, 1-[3-(difluoromethoxy)phenyl]-N-[(1R,2R)-2-hydroxycyclohexyl]-3-isopropyl-2-oxo-benzimidazole-5-carboxamide]
 | 0.096 µM | CC(C)n1c(=O)n(-c2cccc(OC(F)F)c2)c2ccc(C(=O)N[C@@]3(C)CCS(=O)(=O)C3)cc21 [Example 32, 1-[3-(difluoromethoxy)phenyl]-3-isopropyl-N-[(3S)-3-methyl-1,1-dioxo-thiolan-3-yl]-2-oxo-benzimidazole-5-carboxamide]
 | 0.182 µM | CC(C)n1c(=O)n(-c2cccc(OC(F)F)c2)c2ccc(C(=O)NC3(C)CC(F)(F)C3)cc21 [Example 33, 1-[3-(difluoromethoxy)phenyl]-N-(3,3-difluoro-1-methyl-cyclobutyl)-3-isopropyl-2-oxo-benzimidazole-5-carboxamide]
 | 0.062 µM | CC(C)[C@@H](CO)NC(=O)c1ccc2c(c1)n(C(C)C)c(=O)n2-c1cccc(OC(F)F)c1 [Example 34, 1-[3-(difluoromethoxy)phenyl]-N-[(1S)-1-(hydroxymethyl)-2-methyl-propyl]-3-isopropyl-2-oxo-benzimidazole-5-carboxamide]
 | 0.071 µM | CC(C)n1c(=O)n(-c2cccc(OC(F)F)c2)c2ccc(C(=O)N[C@H]3CCCC[C@@H]3O)cc21 [Example 35, 1-[3-(difluoromethoxy)phenyl]-N-[(1S,2S)-2-hydroxycyclohexyl]-3-isopropyl-2-oxo-benzimidazole-5-carboxamide]
 | 0.0194 µM | CC1(NC(=O)c2ccc3c(c2)n(C2CCOCC2)c(=O)n3-c2cccc(OC(F)F)c2)CS(=O)(=O)C1 [Example 36, 1-(3-(difluoromethoxy)phenyl)-N-(3-methyl-1,1-dioxidothietan-3-yl)-2-oxo-3-(tetrahydro-2H-pyran-4-yl)-2,3-dihydro-1H-benzo[d]imidazole-5-carboxamide]
